Experimental data from article PMC6539809, “Development of Oxygen-Bridged Pyrazole-Based Structures as Cannabinoid Receptor 1 Ligands” (Molecules, 2019).

Assays:
[1] = parameters: method as in PMID 23756200; settings: cited from earlier work
[2] = test system: C57Bl6/J mice; test: Acute food intake in fasted mice; format: in vivo, mouse; settings: for Food intake effect over time: 10 mg/kg i.p., at 2 h and 3 h; for Activity on food intake compared to rimonabant: dose of 10 mg/kg i.p.
Experimental: To further evaluate the potential application of these CB1 antagonists in the control of food intake and in obesity treatment, compound 1b was preliminarily tested in comparison with SR141716A in an acute in vivo assay using C57Bl6/J mice. The evaluation was carried out according to the animal model previously reported by Di Marzo [19].
It is well known that CB1Rs mediate the hyperphagic effect of cannabinoids. […] To test the potential anti-obesity effect of the new CB1 antagonist 1b we performed food intake experiments according to the acute animal model described by Di Marzo [19]. For a comparison we also reported the results concerning the assumed lead compound of this new series, derivative 1a.
A widely described method was used for the screening of the new CB1 antagonists in the food intake animal model. C57Bl6/J mice weighing 20–25 g were housed individually on a reverse light-dark cycle in a room with temperature and humidity control. The mice were fasted for 18 h before testing. Vehicle or CB1 antagonists were administered by an intraperitoneal injection and 15 min later a known amount of food was presented. Food pellets were weighed after each hour for three hours. Rimonabant was used as internal positive control in order to evaluate the efficacy of each compound. All animal experiments were performed according to the UE (CEE N° 86/609) guidelines for the care and use of experimental animals.
Two-way ANOVA with Bonferroni post-testing was performed using GraphPad Prism version 5.00 for Windows (GraphPad Software, San Diego CA, USA).

[3] = biological target: T1, CB1 receptor (Mus musculus, UniProt P47746); settings: [3H]-CP 55,940, mouse brain (minus cerebellum) homogenate; lead compound; read-out: KiCB1; cited from earlier work
T1 construct: from tissue; host or cells: mouse (CD1) brain minus cerebellum, membrane homogenate
T1 sequence (P47746 whole entry): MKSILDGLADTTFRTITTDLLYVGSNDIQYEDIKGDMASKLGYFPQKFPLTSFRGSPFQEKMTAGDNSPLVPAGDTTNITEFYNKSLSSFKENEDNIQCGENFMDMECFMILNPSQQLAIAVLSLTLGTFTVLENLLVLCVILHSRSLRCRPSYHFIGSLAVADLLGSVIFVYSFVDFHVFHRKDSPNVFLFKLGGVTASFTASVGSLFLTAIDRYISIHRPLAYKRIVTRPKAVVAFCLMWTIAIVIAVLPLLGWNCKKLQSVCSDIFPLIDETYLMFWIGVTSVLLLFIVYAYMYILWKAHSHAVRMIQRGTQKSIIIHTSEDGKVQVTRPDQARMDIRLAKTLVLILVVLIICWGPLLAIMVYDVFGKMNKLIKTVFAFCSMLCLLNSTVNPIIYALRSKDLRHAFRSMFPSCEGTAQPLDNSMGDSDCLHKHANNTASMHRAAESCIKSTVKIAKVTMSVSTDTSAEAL

[4] = biological target: T2, CB1Rs of mouse vas deferens (Mus musculus, UniProt P47746); test: Isolated organ assay: electrically evoked contractions of mouse vas deferens; settings: for Kb: read-out: Antagonist potency pA2 (converted)
T2 construct: naturally expressed prejunctional neuronal CB1Rs; from tissue; host or cells: isolated vas deferens of male albino CD1 mice
T2 sequence (P47746 whole entry): as above
Experimental: Vas deferens was obtained from male albino CD1 mice weighing 30 to 40 g. Tissue was mounted in a 10 mL organ bath at an initial tension of 0.5 g using a previously described method [16]. The bath contained Krebs-Henseleit solution (118.2 mM NaCl, 4.75 mM KCl, 1.19 mM KH2PO4, 25.0 mM NaHCO3, 11.0 mM glucose, and 2.54 mM CaCl2), which was kept at 37 °C and bubbled with 95% O2 and 5% CO2. Isometric contractions were evoked by stimulation with 0.5 sec trains of three pulses of 110% maximal voltage (train frequency, 0.1 Hz; pulse duration, 0.5 msec) through platinum electrodes attached to the upper end of each bath and a stainless-steel electrode attached to the lower end. Stimuli were generated using a Grass S88K stimulator and then amplified (multiplexing pulse booster 316S; Ugo Basile, Comerio, Italy) and divided to yield separate outputs to four organ baths. Contractions were monitored using a computer equipped with a data recording and analysis system (PowerLab 400) linked via preamplifiers (QuadBridge) to an F10 transducer (Biological Instruments, Besozzo, Italy). Each tissue was subject to several periods of stimulation. […] The stimulator was then switched off for 15 min, after which the tissues were subjected to further periods of stimulation each lasting 5 min and separated by a stimulation-free period. The compounds to be assayed were added once the contractile responses to electrical stimulation were reproducible. Preparations were exposed to cumulative increasing concentrations of the compounds to obtain concentration-response curves in the case of CB1 agonist (and partial agonist) compounds. […] Inhibition of the electrically evoked twitch response was expressed in percentage terms and was calculated by comparing the amplitude of the twitch response after each addition of the agonist compound (alone or in the presence of a potential CB1 antagonist) with the amplitude detected in absence of the compounds to be assayed (basal value). The pA2 values for competitive antagonism were calculated by Schild regression analysis [37]. Data were plotted as log antagonist concentration versus log [(antagonist concentration/agonist concentration)-1].

[5] = biological target: T3, CB2 receptor (Mus musculus, UniProt P47936); settings: [3H]-CP-55,940, mouse spleen homogenate; lead compound; read-out: KiCB2; cited from earlier work
T3 construct: from tissue; host or cells: mouse (CD1) spleen, membrane homogenate
T3 sequence (P47936 whole entry): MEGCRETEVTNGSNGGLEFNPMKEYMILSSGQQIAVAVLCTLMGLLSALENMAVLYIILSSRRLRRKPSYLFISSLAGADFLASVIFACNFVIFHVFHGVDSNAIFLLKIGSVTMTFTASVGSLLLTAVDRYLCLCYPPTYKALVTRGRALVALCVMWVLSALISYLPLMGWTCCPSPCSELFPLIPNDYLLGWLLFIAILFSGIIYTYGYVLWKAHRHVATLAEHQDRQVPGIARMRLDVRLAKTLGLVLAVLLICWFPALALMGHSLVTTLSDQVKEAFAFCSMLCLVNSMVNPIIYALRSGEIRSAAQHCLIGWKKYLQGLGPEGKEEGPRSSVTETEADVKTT

[6] = test system: obese mice; parameters: method as in PMID 23756200; settings: chronic treatment of obese mice; cited from earlier work
[7] = test system: ventral tegmental area (VTA) dopamine neurons projecting to the NAc shell; parameters: method as in PMID 27521837; settings: i.v. administration of high doses; cited from earlier work
[8] = test system: CD1 mice; test: Gastrointestinal transit (GIT), carmine marker; format: in vivo, mouse
Description: The mouse isolated vas deferens is a nerve-smooth muscle preparation that serves as a highly sensitive and quantitative functional in vitro bioassay for cannabinoid CB1R agonists. The effect of CB1 agonists is related to the action on naturally expressed prejunctional neuronal CB1Rs to inhibit release of the contractile neurotransmitters, noradrenaline and ATP, which is provoked by electrical stimulation. It has been shown that CB1 antagonist derivatives are able to block or reduce the inhibition of the electrically evoked contraction amplitude of the vas deferens induced by CB1 agonists, with parallel dextral shifts in CB1R agonist log concentration-response curves in electrically stimulated tissues. According to previous studies concerning cannabinoid agents, a gastrointestinal transit test was adopted to confirm CB1 antagonism. […] Moreover, the capability of CB1 antagonist compounds both to block the constipation effect induced by cannabinoid agonists and to themselves increase themselves gastrointestinal motility has been reported.
The same procedure previously reported by Murineddu et al. was adopted to evaluate the effect of the compounds on GIT. CD1 mice weighing 30–35 g were used. Carmine (Sigma Chemical Co, St. Louis, MO, USA) was suspended (6% wt/v) in distilled water containing 0.5% methylcellulose and administered by gavage at the dose of 0.3 mL/mouse. Briefly, after 20 min from carmine administration, mice were sacrificed by cervical dislocation and the stomach and small intestine were removed and the omentum was separated, avoiding stretching. The length of the intestine was measured starting from the pyloric sphincter to the ileocecal junction. The distance travelled by the head of the marker was measured and expressed as a percent of the total length of the small intestine. Using this procedure, the marker was consistently found at approximately 50% of the small intestine, 20 min after its administration to naive mice.
20 min later, mice were killed by dislocation cervical and intestines were removed. […] The length of the intestine from the pyloric sphincter to the ileocecal junction and the distance travelled by the carmine front were both measured and recorded. Groups of n = 10 mice were used in each experiment.
Statistical analyses were performed by one-way ANOVA followed by Newman-Keuls post-hoc comparison.

[9] = test system: rats; parameters: method as in PMID 27521837; settings: i.p. dose of 0.125 mg/kg; cited from earlier work
[10] = test system: P-ERK 1/2 expression in mouse neuroblastoma N1E-115 cells (CB1Rs); test: P-ERK 1/2 expression in N1E-115 cells (Western blot); format: cell-based; settings: 5 min pre-treatment with compound (150–200 nM; 1b 200 nM), then WIN 55,212-2 25 nM for 10 min
Experimental: Agonist or antagonist activity of the new derivatives towards CB1Rs were assayed through in vitro testing based on the determination of phosphorylated ERK 1/2 (P-ERK 1/2) expression in a mouse neuroblastoma N1E-115 cell line. As previously reported, this cell line expresses CB1Rs but not CB2Rs; moreover, it has been shown that the exposure of N1E-115 cells to the cannabinoid agonists arachidonyl-2-chloroethylamide (ACEA) and WIN 55-212,2 induces a rapid phosphorylation and activation of the ERK 1/2. The addition of CB1 antagonists as SR141716A abolishes the response induced by the cannabinoid agonists.
N1E-115 cells were grown at 37 °C in humidified 5% CO2 in Dulbecco’s Modified Eagle’s Medium (high glucose supplemented with 10% fetal bovine serum (FBS), 1 μg/mL penicillin-streptomycin, 2 mM L-glutamine, 2.5 μg/mL amphotericin B and 50 μg/mL gentamicin). […] Tested and reference compounds were dissolved in Dulbecco’s phosphate buffered saline (D-PBS) with 1% DMSO and treatments were performed in a volume of 10 μL/mL of cell suspension.
P-ERK 1/2 expression was determined through Western blot analysis according to the previously reported procedure. One-way ANOVA was performed as a statistical analysis using the Graph Pad Prism program (San Diego, CA, USA).
The same procedure was adopted to determine CB1 specific antagonism for compounds which had no effect on P-ERK 1/2 expression themselves. In these last cases, WIN55,212-2 at 25 nM as a reference cannabinoid agonist agent and the new CB1 antagonists at 150–200 nM were employed.

SMILES	Blood-brain barrier (BBB) permeability [1]	Food intake effect over time [2]	Activity on food intake compared to rimonabant [2]	Ki [3]	Kb [4]	Ki [5]	Food intake and body weight on chronic treatment [6]	Observable side effects / behavioural effects ([2]; 20 mg/kg (highest assayed dosage))	Food intake compared to vehicle ([2]; starting from a dose of 3 mg/kg i.p., fasted mice)	Effect on the WIN-55,212-2 action on VTA dopamine neuron activity [7]	Increase in gastrointestinal transit in comparison to vehicle-treated mice ([8]; 0.5–1.0 mg/kg i.p.)	Effect on GIT in combination with WIN 55,212-2 ([8]; WIN 55,212-2 0.5 mg/kg i.p.)	Change of electrically-evoked contractions versus basal response, compound alone ([4]; up to a concentration of 10^−6 M, 30 min incubation)	Food intake and body weight [9]	Counteraction of the WIN 55,212-2-induced increase of P-ERK 1/2 expression [10]
O=C(NN1CCCCC1)c1nn(-c2ccc(Cl)cc2Cl)c2c1CCOc1cc(Cl)ccc1-2 [Compound 1a, 8-chloro-1-(2,4-dichlorophenyl)-N-piperidin-1-yl-4,5-dihydrobenzo-1H-6-oxa-cyclohepta[1,2-c]pyrazole-3-carboxamide]	poor	still markedly decreased food intake	Significant increments of the activity	10.3 ± 0.41 nM	7.94 nM	> 5000 nM	reduction of food intake and body weight								
O=C(NC1CCCCC1)c1nn(-c2ccc(Cl)cc2Cl)c2c1CCOc1cc(Cl)ccc1-2 [Compound 1b]		still markedly decreased food intake	Significant increments of the activity	40 ± 7 nM	0.794 nM	3725 ± 25 nM		absence of observable side effects	significantly reduced food intake	reverted the effect of the agonist WIN-55,212-2	65–70%	significantly blocked	No agonist activity	reduced both food intake and body weight	CB1 antagonist activity
